From patent US12319681B2, “Tripartite androgen receptor eliminators, methods and uses thereof” (SPG Therapeutics, Inc., priority 2017, dated 2025)
Like-named read-outs stand apart in the source and are kept apart here.

Legend:
[1] = system: MDA-kb2 mammary gland breast cancer cell line; experiment: MDA-kb2 cell viability (Trypan Blue exclusion); conditions: MDA-kb2, 1.0 nM DHT, 24 hours
Method: (§3) For the MDA-kb2 assay, MDA-kb2 mammary gland breast cancer cell line was maintained in L-15 media (Gibco) supplemented with 10% FBS, 100 U/mL penicillin, 100 μg/mL streptomycin, and 0.25 μg/mL amphotericin B at 37° C., without CO2. For experiments, cells were plated at 1.0×10^4 cells (50% confluence) per well in 100 μL of medium in 96-well plates. When cells were attached (after 6 hours), medium was removed and replaced with dosing medium containing 10% charcoal stripped FBS.
(§4) A 5α-Androstan-17β-ol-3-one (DHT) stock solution was prepared at 1,000× in ethanol. Each ARE tested was prepared in DMSO. Dosing medium was prepared at the time of treatment by serial diluting stock solution into medium. Ethanol concentrations in media never exceeded 0.1%. […] Negative control wells contained 100 μL medium/well with 1 μL of ethanol/mL of medium and an appropriate amount of DMSO. Each plate also contained 1.0 nM DHT with an ARE or without an ARE as a positive control. Cells were incubated 24 hours at 37° C. without CO2.
(§5) To assess for cell viability, cells were first visually examined under a phase-contrast microscope to record cell confluence, morphological changes, and presence of drug crystallization as well as to observe signs of cytotoxity such as, e.g., detachment, vacuolization, membrane degradation, or lack of phase brightness. After microscopic inspection, a Trypan Blue exclusion assay was performed to assess cell viability and cell number for each well. Each well was washed with 0.5 mL volume of PBS. 30 µL of Trypan Blue was added to each well for 5-10 minutes. Total cell number and total viable cell number will be counted from 1 number of fields per well, in triplicate.

[2] = system: normal Human Adult Primary Epidermal Keratinocyte cell line; conditions: 72 h
Method: (§6) For the Keratinocyte assay, normal Human Adult Primary Epidermal Keratinocyte cell line (ATCC PCS-200-011) was maintained in EPIUFE® Medium, with 60 μM calcium (Thermo MEPISOOCA) supplemented with Human Keratinocyte Growth Supplement, 100 U/mL penicillin, and 100 μg/mL streptomycin at 37° C. with 5% C02. For experiments, cells were seeded at 70% confluence per well in 100 μL of medium in 96-well plates. Reverse transfection was done on the cells using Lipofectamine 3000 (Life Technologies) with plasmids according to manufacturer's instructions. Briefly, 0.3 μL transfection reagent per 100 ng DNA were incubated with P3000 reagent and Opti-Mem prior to addition of cells. After 16 hours, medium was removed and replaced with dosing medium.
(§7) Each ARE tested was prepared in DMSO. Dosing medium was prepared at the time of treatment by serial diluting stock solution into medium. Ethanol concentrations in media never exceeded 0.1%. […] Negative control wells contained 100 L medium/well with 1 μL of ethanol/mL of medium and an appropriate amount of DMSO. […] Cells were incubated 72 hours at 37° C. without CO2.

[3] = system: normal Human Adult Primary Epidermal Keratinocyte cell line; experiment: Keratinocyte cell viability (Trypan Blue exclusion, Example 10); conditions: keratinocytes, 1.0 nM DHT, 24 hours
Method: For the Keratinocyte assay, normal Human Adult Primary Epidermal Keratinocyte cell line (ATCC PCS-200-011) was maintained in EPIUFE® Medium, with 60 μM calcium (Thermo MEPISOOCA) supplemented with Human Keratinocyte Growth Supplement, 100 U/mL penicillin, and 100 μg/mL streptomycin at 37° C. with 5% C02. For experiments, cells were seeded at 70% confluence per well in 100 μL of medium in 96-well plates. […] After 16 hours, medium was removed and replaced with dosing medium.
A 5α-Androstan-17β-ol-3-one (DHT) stock solution was prepared at 1,000× in ethanol. […] Dosing medium was prepared at the time of treatment by serial diluting stock solution into medium. Ethanol concentrations in media never exceeded 0.1%. […] Negative control wells contained 100 μL medium/well with 1 μL of ethanol/mL of medium and an appropriate amount of DMSO. Each plate also contained 1.0 nM DHT with an ARE or without an ARE as a positive control. Cells were incubated 24 hours at 37° C. without CO2.
as §5

in vitro = conditions: human
Method: as §6, §7

[4] = Hamster Skin Penetration Assays; conditions: 8-hour time point
Method: The applied formulation dose for each sample was 10.0 μL and each sample was run in four replicates. The samples were evaluated at the 8-hour time point for compound absorption in epidermal and dermal layers and penetration into receptor medium.

androgen receptor (AR) [5] = target: androgen receptor (AR) (Homo sapiens, UniProt P10275); experiment: MDA-kb2 AR luciferase reporter gene assay (1.0 nM DHT); type: cell-based; conditions: MDA-kb2, 24 h, read-out: Gene Activity Reduction
Method: This example illustrates how to determine the inhibitory activity of an ARE disclosed herein using a cell-based androgen receptor transcriptional reporter assay using an engineered cell line.
(§1) Each ARE tested was prepared in DMSO. […] Ethanol concentrations in media never exceeded 0.1%.
(§2) To assess ARE-mediated inhibition, an AR luciferase assay was performed. After washing cells with 1×PBS, 20 μL lysis buffer (25 mM Tris/phosphate, 4 mM EGTA, 1% Triton, 10% glycerol, 2 mM DTT) was added per well, incubated for 5 minutes with gentle shaking and store at −80° C. On the day of assay, the plates were thawed to ambient temperature and 80 μL of assay buffer (25 mM glycylglycine, 15 mM MgCl2. 5 mM ATP, 0.1 mg/ml BSA) was added to each well. Plates are then processed on a microplate reader (POLARstar Omega) by injecting 100 μL of 1 mM D-luciferin per well, followed by chemiluminescence measurement of 3 seconds at onset of injection. Luciferase activity was determined, measured, and normalized to Relative Light Units (RLU). AR reporter gene activity reduction values were calculated as follows: AR reporter gene activity=1−(average signal (treatment group)/average signal (treatment group without drug).

[6] = system: MDA-kb2 mammary gland breast cancer cell line; conditions: human, 24 h
Method: as §3, §4, §5

androgen receptor (AR) [7] = target: T1, androgen receptor (AR) (Homo sapiens, UniProt P10275); experiment: Keratinocyte AR protein level ELISA (Example 10); type: cell-based; conditions: 24 h, keratinocytes, AR protein level by ELISA, read-out: AR Reduction
T1 construct: human keratinocytes transfected with an AR luciferase reporter gene; endogenous in cells; host or cells: normal human adult primary epidermal keratinocytes (ATCC PCS-200-011)
T1 sequence (P10275 1-920): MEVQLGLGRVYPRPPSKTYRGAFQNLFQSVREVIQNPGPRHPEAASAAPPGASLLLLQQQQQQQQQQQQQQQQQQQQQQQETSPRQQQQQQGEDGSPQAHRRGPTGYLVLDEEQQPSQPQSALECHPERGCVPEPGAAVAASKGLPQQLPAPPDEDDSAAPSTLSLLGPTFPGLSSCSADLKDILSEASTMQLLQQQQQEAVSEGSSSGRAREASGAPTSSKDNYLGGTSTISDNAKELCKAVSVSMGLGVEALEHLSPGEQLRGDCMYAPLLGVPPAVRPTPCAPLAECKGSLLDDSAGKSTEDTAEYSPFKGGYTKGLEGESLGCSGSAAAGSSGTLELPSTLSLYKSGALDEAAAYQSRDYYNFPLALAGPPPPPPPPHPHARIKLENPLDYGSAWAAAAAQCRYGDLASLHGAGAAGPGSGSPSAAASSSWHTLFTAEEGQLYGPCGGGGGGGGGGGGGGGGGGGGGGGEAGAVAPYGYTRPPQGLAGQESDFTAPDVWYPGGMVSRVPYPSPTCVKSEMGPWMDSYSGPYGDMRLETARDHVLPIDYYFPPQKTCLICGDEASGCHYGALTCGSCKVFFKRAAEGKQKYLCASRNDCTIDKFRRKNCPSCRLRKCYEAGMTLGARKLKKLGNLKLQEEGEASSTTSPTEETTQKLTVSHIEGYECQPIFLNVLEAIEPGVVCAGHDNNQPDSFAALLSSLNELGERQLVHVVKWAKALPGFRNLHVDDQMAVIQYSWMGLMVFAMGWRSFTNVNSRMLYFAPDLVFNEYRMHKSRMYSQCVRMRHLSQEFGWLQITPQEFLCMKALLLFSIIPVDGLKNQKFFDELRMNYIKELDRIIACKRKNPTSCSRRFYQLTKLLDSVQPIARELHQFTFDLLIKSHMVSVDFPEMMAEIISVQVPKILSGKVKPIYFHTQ
Method: as §1
To assess levels of AR, an ELISA was performed.

androgen receptor (AR) [8] = target: T1, androgen receptor (AR); experiment: Keratinocyte AR luciferase reporter gene assay (Example 10); type: cell-based; conditions: keratinocytes, 1.0 nM DHT, 24 hours, read-out: Gene Activity Reduction
Method: as §1, §2

androgen receptor (AR) [9] = target: T1, androgen receptor (AR); experiment: Keratinocyte AR Reporter Gene Assay, 24 and 72 hours continuous exposure (Example 12); type: cell-based; conditions: keratinocytes
Method: as §2
This example illustrates how to determine the inhibitory activity of an ARE disclosed herein using a cell-based androgen receptor transcriptional reporter assay using primary human keratinocytes.
Results were analyzed for IC50 and IC90 values in GraphPad Prism using a four-parameter logistic curve equation. Bottom constraints were set to 1 (level of uninduced control).

Compound: CC(=O)N1CCN(c2ccc(OC[C@H]3CO[C@](Cn4ccnc4)(c4ccc(Cl)cc4Cl)O3)cc2)CC1 (racemic) [SPG-002, Ketoconazole]
- Cell Viability ([1]; 0.1 μM): 97%
- Cell Viability ([2]; 0.62 μM): 93.61 ± 3.38
- Cell Viability ([2]; 1.85 μM): 90.96 ± 2.34
- Cell Viability ([2]; 5.56 μM): 71.22 ± 0.88
- Cell Viability ([2]; 16.67 μM): 41.59 ± 1.76
- Cell Viability ([2]; 50 μM): 7.29 ± 12.16
- Cell Viability ([3]; 0.1 μM): 95%
- Cell Viability ([3]; 3.0 μM): 94%
- Cell Viability ([3]; 10 μM): 95%
- IC50 at 72 h (in vitro): 11 µM

Compound: O=C(Nc1ccc([N+](=O)[O-])cc1Cl)c1cc(Cl)ccc1O [Niclosamide]
- Cell Viability ([2]; 0.62 μM): 34.13 ± 2.99
- Cell Viability ([2]; 1.85 μM): 30.65 ± 5.98
- Cell Viability ([2]; 5.56 μM): 25.07 ± 3.81
- Cell Viability ([2]; 16.67 μM): 15.93 ± 7.45
- Cell Viability ([2]; 50 μM): 0.20 ± 6.09
- IC50 at 72 h (in vitro): < 0.2 µM

Compound: CC(=O)S[C@@H]1CC2=CC(=O)CC[C@]2(C)[C@H]2CC[C@@]3(C)[C@@H](CC[C@@]34CCC(=O)O4)[C@H]12 [SPG-001, Spironolactone]
- Cell Viability ([1]; 0.1 μM): 99%
- Cell Viability ([1]; 1.0 μM): 98%
- Cell Viability ([1]; 3.0 μM): 98%
- Cell Viability ([1]; 10 μM): 98%
- Cell Viability ([2]; 0.62 μM): 113.05 ± 1.09
- Cell Viability ([2]; 1.85 μM): 108.09 ± 1.79
- Cell Viability ([2]; 5.56 μM): 99.27 ± 1.50
- Cell Viability ([2]; 16.67 μM): 82.73 ± 1.34
- Cell Viability ([2]; 50 μM): 58.33 ± 2.39
- Cell Viability ([3]; 0.1 μM): 92%
- Cell Viability ([3]; 1.0 μM): 94%
- Cell Viability ([3]; 3.0 μM): 92%
- Cell Viability ([3]; 10 μM): 95%
- IC50 at 72 h (in vitro): 50 µM
- skin absorption (in words) [4]: good amount
- skin penetration (in words) [4]: good amount

Compound: CC12CCC(=O)C=C1C[C@@H](SC(=O)COCCOCCNC(=O)CC13CC4CC(CC(C4)C1)C3)C1C2CCC2(C)C1CC[C@@]21CCC(=O)O1 (stereo partly shown) [SPG-004]
- inhibition at 0.1 µM (androgen receptor (AR) [5]): 11%
- inhibition at 1 µM (androgen receptor (AR) [5]): 22%
- inhibition at 3 µM (androgen receptor (AR) [5]): 36%
- inhibition at 10 µM (androgen receptor (AR) [5]): 42%
- Cell Viability ([6]; 0.1 μM): 97%
- Cell Viability ([6]; 1 μM): 98%
- Cell Viability ([6]; 3 μM): 99%
- Cell Viability ([6]; 10 μM): 98%

Compound: O=C(CC12CC3CC(CC(C3)C1)C2)N1CCN(c2ccc(OC[C@H]3CO[C@](Cn4ccnc4)(c4ccc(Cl)cc4Cl)O3)cc2)CC1 [SPG-006]
- Cell Viability ([3]; 0.1 μM): 93%
- Cell Viability ([3]; 1.0 μM): 94%
- Cell Viability ([3]; 3.0 μM): 94%
- Cell Viability ([3]; 10 μM): 94%
- inhibition at 0.1 µM (androgen receptor (AR) [7]; 0.1 μM): 1%
- inhibition at 1 µM (androgen receptor (AR) [7]; 1.0 μM): 5%
- inhibition at 3 µM (androgen receptor (AR) [7]; 3.0 μM): 20%
- inhibition at 10 µM (androgen receptor (AR) [7]; 10 μM): 37%
- inhibition at 0.1 µM (androgen receptor (AR) [8]; 0.1 μM): 8%
- inhibition at 1 µM (androgen receptor (AR) [8]; 1.0 μM): 19%
- inhibition at 3 µM (androgen receptor (AR) [8]; 3.0 μM): 28%
- inhibition at 10 µM (androgen receptor (AR) [8]; 10 μM): 48%

Compound: Cc1ncsc1-c1ccc([C@H](C)NC(=O)[C@@H]2C[C@@H](O)CN2C(=O)[C@@H](NC(=O)COCC(=O)N2CCN(c3ccc(OC[C@H]4CO[C@](Cn5ccnc5)(c5ccc(Cl)cc5Cl)O4)cc3)CC2)C(C)(C)C)cc1 [SPG-007]
- IC50 (androgen receptor (AR) [9]; 24-hr Treatment): 4.58 µM
- IC90 (androgen receptor (AR) [9]; 24-hr Treatment): 73.8 µM
- Maximum Inhibition (androgen receptor (AR) [9]; 24-hr Treatment): 67%
- IC50 (androgen receptor (AR) [9]; 72-hr Treatment): 1.5 µM
- IC90 (androgen receptor (AR) [9]; 72-hr Treatment): 22.2 µM
- Maximum Inhibition (androgen receptor (AR) [9]; 72-hr Treatment): 80%

Compound: Cc1ncsc1-c1ccc([C@H](C)NC(=O)[C@@H]2C[C@@H](O)CN2C(=O)[C@@H](NC(=O)COCCOCCOCC(=O)N2CCN(c3ccc(OC[C@H]4CO[C@](Cn5ccnc5)(c5ccc(Cl)cc5Cl)O4)cc3)CC2)C(C)(C)C)cc1 [SPG-008]
- IC50 (androgen receptor (AR) [9]; 24-hr Treatment): 3.31 µM
- IC90 (androgen receptor (AR) [9]; 24-hr Treatment): 8.4 µM
- Maximum Inhibition (androgen receptor (AR) [9]; 24-hr Treatment): 94%
- IC50 (androgen receptor (AR) [9]; 72-hr Treatment): 2.38 µM
- IC90 (androgen receptor (AR) [9]; 72-hr Treatment): 7.86 µM
- Maximum Inhibition (androgen receptor (AR) [9]; 72-hr Treatment): 94%
